# Source: patent US4863935A, “Mitomycin compounds having useful anti-tumor activity” (priority 1986, dated 1989)
# Legend:
# [1] = LD50 acute toxicity, ddy mice, single abdominal injection; conditions: mouse, in vivo, ip, 5 ddy mice, 14 days observation, Behrens-Koerber's method
# Source text: (§1) As used herein, the term "LD50 " denotes the acute toxicity. The term "ED50 " denotes the administered amount needed for reducing the volume of Sarcoma 180 solid tumours in animals to 50% of the corresponding tumour volume in control (untreated) animals. The term "WBC4000 " denotes the minimum dose of the drug needed to reduce the number of peripheral leucocytes to 4000/mm^3. A greater TI value results in a broader tolerance to the drug, which is advantageous for higher anti-tumour activity and decreased toxicity. The term "T" used herein denotes the average survival days of the test animals administered with the test compound. The term "C" denotes the average survival days of the control (untreated) animals. The term "OPD" denotes the dose of the drug resulting in the highest survival ratio. The term "ILS30 " denotes a 30% increase of life-span.
# LD50, ED50 and WBC4000 were respectively determined as follows:
# Each animal of the test group, consisting of 5 ddy mice, was administered once with a test compound by abdominal injection. […] To determine the LD50 value, Behrens-Koerber's method was applied.
# Sarcoma 180 solid tumour = assay: ED50 against Sarcoma 180 solid tumour implanted in mice; type: in vivo, male mouse (ddy strain); conditions: for (CI)c: (CI of test compound)/(CI of mitomycin C), CI = LD50/ED50; for ED50: Mus musculus, Sarcoma-180, iv, 168 h, i.v. (tail vein) 24 h after implantation, tumour volume at 7 days, dose for T/C of 0.5
# Source text: With regard to the so-called chemotherapeutic index viz. the CI value against sarcoma 180 solid tumour, expressed by the formula: […]
# as §1
# the term (CI)c denotes (CI of the test compound)/(CI of mitomycin C), and
# 5×10^6 sarcoma 180 solid tumor cells were abdominally implanted into ddy mice. 7 days after this, ascites cells were sampled. The cells were washed once with a sterilized physiological saline and were used to prepare a cell suspension containing 5×10^7 cells per ml of a sterilized physiological saline. On each occasion, 0.1 ml of the cell suspension was subcutaneously implanted under the skin of the right armpit of a male mouse (ddy strain; body weight 20±2 g). The test compound which was dissolved in a physiological saline with or without addition of Tween 80 was injected into the tail vein of each animal of a group consisting of 5 mice at a dose of 0.1-0.2 ml 24 hours after the implantation of the tumor cells.
# The anti-tumor activity was determined in the following manner:
# 7 days after the implantation, the major axis (a) and the minor axis (b) of the tumour were measured to calculate a value of (a×b^2)/2 which corresponds to the volume of the tumour. The antitumour activity was expressed by the ratio of the volume of the tumour (T) of the group of animals administered with the test compound to the corresponding volume of tumours (C) of the untreated animals.
# On graph paper, T/C was plotted on the ordinate using an arithmetic scale and the administered amount of test compound was plotted on the abscissa using a logarithmic scale. The relationship between the dose and T/C was shown by a straight line determined by the method of least squares, from which ED50 viz. a dose corresponding to T/C of 0.5 was obtained.
# [2] = test system: lymphocytic Leukemia P-388; assay: Anti-tumour activity against lymphocytic Leukemia P-388 in mice; type: in vivo, mouse, female of CDF strain
# Source text: Also, their therapeutic indexes, expressed by the formula:
# TI=(OPD)/(dose which results in ILS30),
# against lymphocytic Leukemia P-388 and the maximum increased life spans (ILSmax), defined by the formula: […]
# as §1
# The experiment was carried out in the following manner. 1×10^6 lymphocytic Leukemia P-388 tumour cells were abdominally implanted into each mouse of a group consisting of 5 mice (body weight about 22 g; female of CDF strain). 24 hours after implantation, a physiological saline solution (0.2 ml) containing the test compound with or without addition of Tween 80 was abdominally given to the test animal.
# Table 7 indicates anti-tumour activities of selected Compounds (I) against lyphocytic Leukemia P-388.
Compound,LD50 at 336 h [1] [mg/kg],(CI)c (Sarcoma 180 solid tumour),ED50 (Sarcoma 180 solid tumour) [mg/kg],"(ILSmax)c ([2]; (ILSmax of test compound)/(ILSmax of mitomycin C), ILS=(T-C)/C×100)","(TI)c ([2]; (TI of test compound)/(TI of mitomycin C), TI = OPD/dose which results in ILS30)","ED (optimal dose, highest survival) ([2]; Mus musculus, P388, ip, dose resulting in the highest survival ratio, i.p. 24 h after implantation, 30 days, read-out: OPD) [mg/kg]","ED (30% increase of life-span) ([2]; Mus musculus, P388, ip, 30% increase of life-span, i.p. 24 h after implantation, read-out: Dose needed to give ILS30) [mg/kg]"
"CO[C@@]12[C@H](COC(N)=O)C3=C(C(=O)C(C)=C(NCCSC(=O)NCCc4ccccn4)C3=O)N1C[C@@H]1N[C@@H]12 [Compound 49, 7-N--[2-{2-(2-pyridyl)ethyl}aminocarbonylthioethyl]mitomycin C]",75,1.57,22.8,–,–,–,–
"CO[C@@]12[C@H](COC(N)=O)C3=C(C(=O)C(C)=C(NCCSCOC(=O)NCCC(=O)OC(C)(C)C)C3=O)N1C[C@@H]1N[C@@H]12 [Compound 2, 7-N--[2-(2-t-butoxycarbonylethyl)aminocarbonyloxymethylthioethyl]mitomycin C]",45,1.44,11.2,–,–,–,–
"CO[C@@]12[C@H](COC(N)=O)C3=C(C(=O)C(C)=C(NCCSC(=O)N4CCC(Cc5ccccc5)CC4)C3=O)N1C[C@@H]1N[C@@H]12 [Compound 41, 7-N--[2-(4-benzylpiperidino)carbonylthioethyl]mitomycin C]",41.3,1.37,13.7,–,–,–,–
"CO[C@@]12[C@H](COC(N)=O)C3=C(C(=O)C(C)=C(NCCSC(=O)N4CCCC4)C3=O)N1C[C@@H]1N[C@@H]12 [Compound 21, 7-N--(2-pyrrolidinocarbonylthioethyl)mitomycin C]",37.5,1.44,8.4,–,–,–,–
"CO[C@@]12[C@H](COC(N)=O)C3=C(C(=O)C(C)=C(NCCSC(=O)N4CCC[C@H]4C(=O)N(C)C)C3=O)N1C[C@@H]1N[C@@H]12 [Compound 18, 7-N--[2-((S)--2-dimethylaminocarbonylpyrrolidino)carbonylthioethyl]mitomycin C]",97.5,3.02,12.3,–,–,–,–
"CO[C@@]12[C@H](COC(N)=O)C3=C(C(=O)C(C)=C(NCCSC(=O)N4CCC[C@H]4C(N)=O)C3=O)N1C[C@@H]1N[C@@H]12 [Compound 19, 7-N--[2-((S)--2-carbamoylpyrrolidino)carbonylthioethyl]mitomycin C]",75,1.46,19.6,–,–,–,–
"CO[C@@]12[C@H](COC(N)=O)C3=C(C(=O)C(C)=C(NCCSC(=O)N4CCC[C@H]4C(=O)OCc4ccccc4)C3=O)N1C[C@@H]1N[C@@H]12 [Compound 16, 7-N--[2-((S)--2-benzyloxycarbonylpyrrolidino)-carbonylthioethyl]mitomycin C]",> 100,> 0.45,84.4,–,–,–,–
"CO[C@@]12[C@H](COC(N)=O)C3=C(C(=O)C(C)=C(NCCSC(=O)N(C)NC=O)C3=O)N1C[C@@H]1N[C@@H]12 [Compound 35, 7-N--[2-(1-methyl-2-formylhydrazino)carbonylthioethyl]mitomycin C]",105,1.30,27.9,–,–,–,–
"CCCNC(=S)SCCNC1=C(C)C(=O)C2=C(C1=O)[C@@H](COC(N)=O)[C@@]1(OC)[C@H]3N[C@H]3CN21 [Compound 40, 7-N--(2-n-propylaminothiocarbonylthioethyl)mitomycin C]",> 25,> 1.03,10.1,–,–,–,–
"CO[C@@]12[C@H](COC(N)=O)C3=C(C(=O)C(C)=C(NCCSC(=S)NC4CCCCC4)C3=O)N1C[C@@H]1N[C@@H]12 [Compound 37, 7-N--(2-cyclohexylaminothiocarbonylthioethyl)mitomycin C]",41.3,0.73,23.5,–,–,–,–
CO[C@@]12[C@H](COC(N)=O)C3=C(C(=O)C(C)=C(NCCSC(=S)NC(c4ccccc4)c4ccccc4)C3=O)N1C[C@@H]1N[C@@H]12 [Compound 50],–,–,–,> 2.39,1.10,12.5,0.74
"CO[C@@]12[C@H](COC(N)=O)C3=C(C(=O)C(C)=C(NCCSC(=O)N(C)C)C3=O)N1C[C@@H]1N[C@@H]12 [Compound 8, 7-N--(2-dimethylaminocarbonylthioethyl)mitomycin C]",26.3,0.65,14.4,–,–,–,–
"CNC(=S)SCCNC1=C(C)C(=O)C2=C(C1=O)[C@@H](COC(N)=O)[C@@]1(OC)[C@H]3N[C@H]3CN21 [Compound 25, 7-N--(2-methylaminothiocarbonylthioethyl)mitomycin C]",52.5,1.96,10.5,–,–,–,–
"CO[C@@]12[C@H](COC(N)=O)C3=C(C(=O)C(C)=C(NCCSC(=O)N4CCOCC4)C3=O)N1C[C@@H]1N[C@@H]12 [Compound 33, 7-N--(2-morpholinocarbonylthioethyl)mitomycin C]",52.5,1.23,17.8,–,–,–,–
"CO[C@@]12[C@H](COC(N)=O)C3=C(C(=O)C(C)=C(NCCSC(=O)NC(CO)C(C)C)C3=O)N1C[C@@H]1N[C@@H]12 (stereo partly shown) [Compound 48, 7-N--[2-(1-hydroxymethyl-2-methylpropyl)aminocarbonylthioethyl]mitomycin C]",45,1.39,14.3,–,–,–,–
"CC1=C(NCCSC(=S)NC2CCCCC2)C(=O)C2=C(C1=O)N1C[C@H]3[C@H](N3C)[C@]1(O)[C@H]2COC(N)=O (stereo partly shown) [Compound 38, 7-N--(2-cyclohexylaminothiocarbonylthioethyl)mitomycin D]",75,0.79,39.5,–,–,–,–
"CO[C@@]12[C@H](COC(N)=O)C3=C(C(=O)C(C)=C(NCCSC(=O)N4CCC[C@H]4C(=O)Nc4ccc(O)cc4)C3=O)N1C[C@@H]1N[C@@H]12 [Compound 45, 7-N--{2-[(S)--2-(4-hydroxyanilino)carbonylpiperidino]carbonylthioethyl}mitomycin C]",> 100,> 0.51,89.1,–,–,–,–
"CO[C@@]12[C@H](COC(N)=O)C3=C(C(=O)C(C)=C(NCCSC(=O)NC(C(C)C)C(C)C)C3=O)N1C[C@@H]1N[C@@H]12 [Compound 46, 7-N--[2-(1-isopropyl-2-methylpropyl)aminocarbonylthioethyl]mitomycin C]",37.5,1.27,12.5,–,–,–,–
"CO[C@@]12[C@H](COC(N)=O)C3=C(C(=O)C(C)=C(NCCSC(=O)N4CCCCC4)C3=O)N1C[C@@H]1N[C@@H]12 [Compound 42, 7-N--(2-piperidinocarbonylthioethyl)mitomycin C]",33.8,1.14,9.34,–,–,–,–
"CO[C@@]12[C@H](COC(N)=O)C3=C(C(=O)C(C)=C(NCCSC(=O)N4CCC(O)CC4)C3=O)N1C[C@@H]1N[C@@H]12 [Compound 43, 7-N--[2-(4-hydroxypiperidino)carbonylthioethyl]mitomycin C]",52.5,2.17,9.15,–,–,–,–
"CCCCNC(=O)SCCNC1=C(C)C(=O)C2=C(C1=O)[C@@H](COC(N)=O)[C@@]1(OC)[C@H]3N[C@H]3CN21 [Compound 28, 7-N--(2-n-butylaminocarbonylthioethyl)mitomycin C]",43.8,1.73,9.9,–,–,–,–
"CO[C@@]12[C@H](COC(N)=O)C3=C(C(=O)C(C)=C(NCCSC(=O)NC(C)(C)C(=O)OC(C)(C)C)C3=O)N1C[C@@H]1N[C@@H]12 [Compound 34, 7-N--[2-(1-methyl-1-t-butoxycarbonylethyl)-aminocarbonylthioethyl]mitomycin C]",37.5,1.14,13.7,–,–,–,–
